Laboratory results published in ChEMBL document CHEMBL1201862, “PubChem BioAssay data set” (2004).
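The compound was tested at five concentrations on cells cultured in 96-well plates, with a 48-hour exposure period. Here, GI50 denotes the concentration required for 50% inhibition of growth.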 Active and inactive are the calls of the source. Cut-off read from the data, not from the text of the source: active = GI50 up to about 1.1 µM and inactive = higher.

Legend:
Assay in all cases: NCI-60 cell line screen, 48 h
MDA-MB-231 = tested on: MDA-MB-231
NCI/ADR-RES = tested on: NCI/ADR-RES
SF-295 = tested on: SF-295
SF-268 = tested on: SF-268
CAKI-1 = tested on: CAKI-1
786-0 = tested on: 786-0
LOX IMVI = tested on: LOX IMVI
MOLT-4 = tested on: MOLT-4
SR = tested on: SR
Malme-3M = tested on: Malme-3M
M14 = tested on: M14
MDA-MB-435 = tested on: MDA-MB-435
OVCAR-3 = tested on: OVCAR-3
KM12 = tested on: KM12
HT-29 = tested on: HT-29
HL-60 = tested on: HL-60
BT-549 = tested on: BT-549
K562 = tested on: K562
SK-MEL-5 = tested on: SK-MEL-5
SK-MEL-2 = tested on: SK-MEL-2

Measured: GI50

COC(=O)/C=C/CCC#Cc1ccccc1C#CCC/C=C/C(=O)OC
inactive: MDA-MB-231 20.1 µM | NCI/ADR-RES 8.28 µM | SF-295 13.2 µM | SF-268 9.82 µM | CAKI-1 2.88 µM | 786-0 4.98 µM | LOX IMVI 4.99 µM | MOLT-4 3.01 µM | SR 3.43 µM | Malme-3M 3.9 µM | M14 8.97 µM | MDA-MB-435 6 µM | OVCAR-3 3.58 µM | KM12 4.98 µM | HT-29 3.49 µM | HL-60 2.7 µM | BT-549 7.55 µM | K562 1.76 µM

Cc1ccc(-c2cc(N)n(-c3nc4c(c(=O)n(C)c(=O)n4C)n3C)n2)cc1
inactive: MDA-MB-231 > 100 µM | SK-MEL-5 32.4 µM | NCI/ADR-RES 95.1 µM | SF-295 62.7 µM | SF-268 43.7 µM | CAKI-1 > 100 µM | 786-0 42.2 µM | MOLT-4 > 100 µM | SR > 100 µM | Malme-3M 45.6 µM | M14 > 100 µM | MDA-MB-435 > 100 µM | OVCAR-3 > 100 µM | SK-MEL-2 > 100 µM | KM12 > 100 µM | HT-29 > 100 µM | HL-60 > 100 µM | BT-549 > 100 µM | K562 > 100 µM

Cc1ccc(/C=N/n2c(-c3ccc(C)cc3)n[nH]c2=O)cc1
inactive: MDA-MB-231 45.8 µM | SK-MEL-5 38.1 µM | NCI/ADR-RES 59.6 µM | SF-295 48.8 µM | SF-268 > 100 µM | CAKI-1 35.9 µM | 786-0 29.6 µM | MOLT-4 92.7 µM | SR 25.4 µM | Malme-3M 80.5 µM | M14 68.4 µM | MDA-MB-435 47.2 µM | OVCAR-3 > 100 µM | SK-MEL-2 > 100 µM | KM12 > 100 µM | HT-29 > 100 µM | HL-60 > 100 µM | BT-549 90.4 µM | K562 96.4 µM

CCCC(=O)Nc1cc([N+](=O)[O-])c([N+](=O)[O-])cc1OC
inactive: MDA-MB-231 19.1 µM | SK-MEL-5 16.6 µM | NCI/ADR-RES 39.5 µM | SF-295 10.1 µM | SF-268 16.3 µM | CAKI-1 16 µM | 786-0 26.3 µM | LOX IMVI 2.79 µM | MOLT-4 > 10 µM | SR 5.18 µM | M14 12.8 µM | MDA-MB-435 18.4 µM | OVCAR-3 14.6 µM | SK-MEL-2 16.5 µM | KM12 12.4 µM | HT-29 13.3 µM | HL-60 13.1 µM | BT-549 17.3 µM | K562 17.5 µM

COc1ccc(C2=NN=C3C(c4ccccc4)=Nc4ccccc4N3C2)cc1
inactive: MDA-MB-231 27.5 µM | SK-MEL-5 21.3 µM | NCI/ADR-RES 10.8 µM | SF-268 13.6 µM | 786-0 10.6 µM | LOX IMVI 16.9 µM | MOLT-4 7.05 µM | SR 3.04 µM | Malme-3M 25.2 µM | M14 15.5 µM | MDA-MB-435 27.2 µM | OVCAR-3 3.06 µM | SK-MEL-2 22.6 µM | KM12 21.4 µM | HT-29 20.1 µM | HL-60 7.55 µM | BT-549 40 µM | K562 30.8 µM

O=c1[nH]c(Nc2nc3ccccc3[nH]2)nc(O)c1-c1ccccc1
inactive: MDA-MB-231 > 100 µM | SK-MEL-5 > 100 µM | NCI/ADR-RES > 100 µM | SF-295 > 100 µM | SF-268 > 100 µM | CAKI-1 > 100 µM | 786-0 > 100 µM | LOX IMVI > 100 µM | SR > 100 µM | Malme-3M > 100 µM | M14 > 100 µM | MDA-MB-435 > 100 µM | OVCAR-3 > 100 µM | SK-MEL-2 > 100 µM | HT-29 > 100 µM | BT-549 > 100 µM | K562 > 100 µM

Cc1cc2c(cc1Cl)SC(NNC(=O)c1ccncc1)=NS2(=O)=O
inactive: MDA-MB-231 > 10 µM | SK-MEL-5 > 10 µM | NCI/ADR-RES > 10 µM | SF-295 > 10 µM | SF-268 > 10 µM | CAKI-1 > 10 µM | 786-0 > 10 µM | LOX IMVI > 10 µM | MOLT-4 > 10 µM | Malme-3M > 10 µM | M14 > 10 µM | MDA-MB-435 > 10 µM | OVCAR-3 > 10 µM | SK-MEL-2 > 10 µM | KM12 > 10 µM | HT-29 > 10 µM | HL-60 > 10 µM | BT-549 > 10 µM | K562 > 10 µM

CCOC(=O)CC(=O)C(=O)NN=C1NCCN1
inactive: MDA-MB-231 > 100 µM | SK-MEL-5 > 100 µM | NCI/ADR-RES > 100 µM | SF-295 > 100 µM | SF-268 > 100 µM | 786-0 > 100 µM | LOX IMVI > 100 µM | MOLT-4 > 100 µM | SR > 100 µM | Malme-3M > 100 µM | M14 > 100 µM | MDA-MB-435 > 100 µM | OVCAR-3 > 100 µM | SK-MEL-2 > 100 µM | KM12 > 100 µM | HT-29 > 100 µM | HL-60 > 100 µM | BT-549 > 100 µM | K562 > 100 µM

Cc1nc2cc(C(F)(F)F)ccc2[nH]c1=O
inactive: MDA-MB-231 > 100 µM | SK-MEL-5 > 100 µM | NCI/ADR-RES > 100 µM | SF-295 > 100 µM | SF-268 > 100 µM | CAKI-1 > 100 µM | 786-0 > 100 µM | LOX IMVI > 100 µM | MOLT-4 > 100 µM | Malme-3M > 100 µM | M14 > 100 µM | MDA-MB-435 > 100 µM | OVCAR-3 > 100 µM | SK-MEL-2 > 100 µM | KM12 > 100 µM | HT-29 > 100 µM | HL-60 > 100 µM | BT-549 > 100 µM | K562 > 100 µM

C/C=C1/CN2CCc3c([nH]c4ccccc34)[C@@H]2C[C@@H]1Cc1nccc2c1[nH]c1cc(O)ccc12
inactive: MDA-MB-231 1.64 µM | SK-MEL-5 1.57 µM | NCI/ADR-RES 1.72 µM | SF-295 1.9 µM | SF-268 1.77 µM | CAKI-1 1.73 µM | 786-0 1.61 µM | LOX IMVI 2.77 µM | MOLT-4 2.58 µM | SR 11.7 µM | M14 2.16 µM | MDA-MB-435 1.9 µM | OVCAR-3 2.39 µM | SK-MEL-2 2.05 µM | KM12 1.95 µM | HT-29 1.87 µM | HL-60 2.45 µM | BT-549 13.9 µM | K562 2.13 µM

C[C@@H](CC(O)C(O)C(C)(C)O)C1CCC23CC12CCC1[C@@]2(C)CCC(=O)C(C)(C)C2CC(OC2OC(CO)C(O)C(O)C2O)[C@]13C (stereo not given in full)
inactive: MDA-MB-231 > 10 µM | SK-MEL-5 > 10 µM | NCI/ADR-RES > 10 µM | SF-295 > 10 µM | SF-268 > 10 µM | CAKI-1 > 10 µM | 786-0 > 10 µM | LOX IMVI > 10 µM | MOLT-4 > 10 µM | Malme-3M > 10 µM | M14 > 10 µM | MDA-MB-435 > 10 µM | OVCAR-3 > 10 µM | SK-MEL-2 > 10 µM | KM12 > 10 µM | HT-29 > 10 µM | HL-60 > 10 µM | BT-549 > 10 µM | K562 > 10 µM
